Laboratory results taken from ChEMBL document CHEMBL1201861, “Genomics of Drug Sensitity in Cancer screening data, Wellcome Trust Sanger Institute”.
pIC50: −log10 of the molar value.

How the values were obtained:
Test in all cases: cells
[1] = system: A388; assay type: functional, cell-based, Homo sapiens; settings: Homo sapiens, A388;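 further: growth inhibition of human A388 cells, read out with a cell viability assay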
Description: SANGER: Inhibition of human A388 cell growth in a cell viability assay.

[2] = system: MZ7-mel; assay type: functional, cell-based, Homo sapiens; settings: Homo sapiens, MZ7-mel;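 further: growth inhibition of human MZ7-mel cells, measured by a cell viability assay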
Description: SANGER: Inhibition of human MZ7-mel cell growth in a cell viability assay.

[3] = system: OCI-AML2; assay type: functional, cell-based, Homo sapiens; settings: Homo sapiens, OCI-AML2;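 further: growth inhibition of OCI-AML2 cells, read out with a cell viability assay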
Description: SANGER: Inhibition of human OCI-AML2 cell growth in a cell viability assay.

[4] = system: MFM-223; assay type: functional, cell-based, Homo sapiens; settings: Homo sapiens, MFM-223
Description: SANGER: Inhibition of human MFM-223 cell growth in a cell viability assay.

[5] = system: NCI-H446; assay type: functional, cell-based, Homo sapiens; settings: Homo sapiens, NCI-H446;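 further: growth inhibition of NCI-H446 cells determined by a cell viability assay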
Description: SANGER: Inhibition of human NCI-H446 cell growth in a cell viability assay.

[6] = system: ACN; assay type: functional, cell-based, Homo sapiens; settings: Homo sapiens, ACN;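 further: growth inhibition of the human ACN cell line, read out via cell viability testing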
Description: SANGER: Inhibition of human ACN cell growth in a cell viability assay.

[7] = system: NTERA-2-cl-D1; assay type: functional, cell-based, Homo sapiens; settings: Homo sapiens, NTERA-2-cl-D1;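 further: inhibition of cell growth, measured with a cell viability assay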
Description: SANGER: Inhibition of human NTERA-S-cl-D1 cell growth in a cell viability assay.

[8] = system: COLO-320-HSR; assay type: functional, cell-based, Homo sapiens; settings: Homo sapiens, COLO-320-HSR;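 further: growth inhibition of COLO-320-HSR cells, determined with a cell viability assay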
Description: SANGER: Inhibition of human COLO-320-HSR cell growth in a cell viability assay.

[9] = system: OMC-1; assay type: functional, cell-based, Homo sapiens; settings: Homo sapiens, OMC-1;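 further: growth inhibition of the OMC-1 cell line, measured by a cell viability assay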
Description: SANGER: Inhibition of human OMC-1 cell growth in a cell viability assay.

[10] = system: EW-1; assay type: functional, cell-based, Homo sapiens; settings: Homo sapiens, EW-1;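 further: growth inhibition of the human EW-1 cell line, read out by a cell viability assay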
Description: SANGER: Inhibition of human EW-1 cell growth in a cell viability assay.

[11] = system: NCI-H720; assay type: functional, cell-based, Homo sapiens; settings: Homo sapiens, NCI-H720;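 further: growth inhibition of human NCI-H720 cells determined by a cell viability assay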
Description: SANGER: Inhibition of human NCI-H720 cell growth in a cell viability assay.

[12] = system: SHP77; assay type: functional, cell-based, Homo sapiens, SHP-77; settings: Homo sapiens, SHP77;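 further: growth inhibition of human SHP-77 cells measured by a cell viability assay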
Description: SANGER: Inhibition of human SHP-77 cell growth in a cell viability assay.

[13] = system: SK-N-DZ; assay type: functional, cell-based, Homo sapiens; settings: Homo sapiens, SK-N-DZ;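 further: growth inhibition of the cancer cell line, read out through a viability assay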
Description: SANGER: Inhibition of human SK-N-DZ cell growth in a cell viability assay.

[14] = system: JVM-3; assay type: functional, cell-based, Homo sapiens; settings: Homo sapiens, JVM-3;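 further: growth inhibition of human JVM-3 cells, read out with a cell viability assay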
Description: SANGER: Inhibition of human JVM-3 cell growth in a cell viability assay.

[15] = system: NCI-H1648; assay type: functional, cell-based, Homo sapiens; settings: Homo sapiens, NCI-H1648;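 further: cell viability assay measuring inhibition of NCI-H1648 cell growth, from the Sanger screening data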
Description: SANGER: Inhibition of human NCI-H1648 cell growth in a cell viability assay.

[16] = system: no-10; assay type: functional, cell-based, Homo sapiens; settings: Homo sapiens;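 further: growth inhibition of no-10 cells, read out with a cell viability assay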
Description: SANGER: Inhibition of human no-10 cell growth in a cell viability assay.

[17] = system: TE-12; assay type: functional, cell-based, Homo sapiens; settings: Homo sapiens, TE-12;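 further: growth inhibition of TE-12 cells, read out by a cell viability assay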
Description: SANGER: Inhibition of human TE-12 cell growth in a cell viability assay.

[18] = system: ES5; assay type: functional, cell-based, Homo sapiens; settings: Homo sapiens, ES5;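 further: growth inhibition of human ES5 cells, read out by a cell viability assay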
Description: SANGER: Inhibition of human ES5 cell growth in a cell viability assay.

[19] = system: HDLM-2; assay type: functional, cell-based, Homo sapiens; settings: Homo sapiens, HDLM-2;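 further: cell viability assay measuring suppression of HDLM-2 proliferation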
Description: SANGER: Inhibition of human HDLM-2 cell growth in a cell viability assay.

[20] = system: LU-139; assay type: functional, cell-based, Homo sapiens; settings: Homo sapiens, LU-139
Description: SANGER: Inhibition of human LU-139 cell growth in a cell viability assay.

[21] = system: JAR; assay type: functional, cell-based, Homo sapiens; settings: Homo sapiens, JAR;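 further: growth inhibition of human JAR cells determined with a cell viability assay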
Description: SANGER: Inhibition of human JAR cell growth in a cell viability assay.

[22] = system: NCI-H226; assay type: functional, cell-based, Homo sapiens; settings: Homo sapiens, NCI-H226;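 further: cell viability read-out used to gauge growth inhibition of the cells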
Description: SANGER: Inhibition of human NCI-H226 cell growth in a cell viability assay.

[23] = system: LS-123; assay type: functional, cell-based, Homo sapiens; settings: Homo sapiens, LS-123
Description: SANGER: Inhibition of human LS-123 cell growth in a cell viability assay.

[24] = system: SW872; assay type: functional, cell-based, Homo sapiens; settings: Homo sapiens, SW872;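 further: growth inhibition of SW872 cells, read out by a viability assay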
Description: SANGER: Inhibition of human SW872 cell growth in a cell viability assay.

[25] = system: L-363; assay type: functional, cell-based, Homo sapiens; settings: Homo sapiens, L-363
Description: SANGER: Inhibition of human L-363 cell growth in a cell viability assay.

[26] = system: NCI-N87; assay type: functional, cell-based, Homo sapiens; settings: Homo sapiens, NCI-N87;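 further: growth inhibition of human NCI-N87 cells, read out with a cell viability assay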
Description: SANGER: Inhibition of human NCI-N87 cell growth in a cell viability assay.

[27] = system: SK-MEL-2; assay type: functional, cell-based, Homo sapiens; settings: Homo sapiens, SK-MEL-2;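 further: growth inhibition of human SK-MEL-2 cells measured with a cell viability assay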
Description: SANGER: Inhibition of human SK-MEL-2 cell growth in a cell viability assay.

[28] = system: DB; assay type: functional, cell-based, Homo sapiens; settings: Homo sapiens, DB
Description: SANGER: Inhibition of human DB cell growth in a cell viability assay.

[29] = system: GOTO; assay type: functional, cell-based, Homo sapiens; settings: Homo sapiens, GOTO;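 further: growth inhibition of GOTO cells, read out by a cell viability assay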
Description: SANGER: Inhibition of human GOTO cell growth in a cell viability assay.

[30] = system: MZ2-MEL; assay type: functional, cell-based, Homo sapiens; settings: Homo sapiens, MZ2-MEL;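 further: growth inhibition of MZ2-MEL cells read out with a cell viability assay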
Description: SANGER: Inhibition of human MZ2-MEL cell growth in a cell viability assay.

[31] = system: LC-2-ad; assay type: functional, cell-based, Homo sapiens; settings: Homo sapiens, LC-2-ad;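 further: growth inhibition of human LC-2-ad cells, read out with a cell viability assay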
Description: SANGER: Inhibition of human LC-2-ad cell growth in a cell viability assay.

[32] = system: MEG-01; assay type: functional, cell-based, Homo sapiens; settings: Homo sapiens, MEG-01;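 further: growth inhibition of MEG-01 cells, read out by a cell viability assay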
Description: SANGER: Inhibition of human MEG-01 cell growth in a cell viability assay.

[33] = system: GAK; assay type: functional, cell-based, Homo sapiens; settings: Homo sapiens, GAK;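 further: cell growth inhibition read out by a cell viability assay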
Description: SANGER: Inhibition of human GAK cell growth in a cell viability assay.

[34] = system: EKVX; assay type: functional, cell-based, Homo sapiens; settings: Homo sapiens, EKVX;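 further: growth inhibition of human EKVX cells, read out with a cell viability assay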
Description: SANGER: Inhibition of human EKVX cell growth in a cell viability assay.

[35] = system: KINGS-1; assay type: functional, cell-based, Homo sapiens; settings: Homo sapiens, KINGS-1;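 further: cell viability assay measuring suppression of KINGS-1 cell growth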
Description: SANGER: Inhibition of human KINGS-1 cell growth in a cell viability assay.

[36] = system: DEL; assay type: functional, cell-based, Homo sapiens; settings: Homo sapiens, DEL;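 further: growth inhibition of the human DEL cell line, read out with a cell viability assay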
Description: SANGER: Inhibition of human DEL cell growth in a cell viability assay.

[37] = system: GI-1; assay type: functional, cell-based, Homo sapiens; settings: Homo sapiens, GI-1;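 further: growth inhibition of human GI-1 cells, measured with a cell viability readout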
Description: SANGER: Inhibition of human GI-1 cell growth in a cell viability assay.

[38] = system: OS-RC-2; assay type: functional, cell-based, Homo sapiens; settings: Homo sapiens, OS-RC-2;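 further: growth inhibition of human OS-RC-2 cells, measured by a cell viability assay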
Description: SANGER: Inhibition of human OS-RC-2 cell growth in a cell viability assay.

[39] = system: NEC8; assay type: functional, cell-based, Homo sapiens; settings: Homo sapiens, NEC8;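 further: growth inhibition of human NEC8 cells, read out by a cell viability assay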
Description: SANGER: Inhibition of human NEC8 cell growth in a cell viability assay.

[40] = system: HCC 2998; assay type: functional, cell-based, Homo sapiens; settings: Homo sapiens, HCC 2998;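 further: growth inhibition of human HCC2998 cells, measured with a cell viability read-out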
Description: SANGER: Inhibition of human HCC2998 cell growth in a cell viability assay.

[41] = system: D-247MG; assay type: functional, cell-based, Homo sapiens; settings: Homo sapiens, D-247MG
Description: SANGER: Inhibition of human D-247MG cell growth in a cell viability assay.

[42] = system: CTB-1; assay type: functional, cell-based, Homo sapiens; settings: Homo sapiens, CTB-1
Description: SANGER: Inhibition of human CTB-1 cell growth in a cell viability assay.

[43] = system: KNS-42; assay type: functional, cell-based, Homo sapiens; settings: Homo sapiens, KNS-42;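 further: growth inhibition of KNS-42 cells, read out with a cell viability assay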
Description: SANGER: Inhibition of human KNS-42 cell growth in a cell viability assay.

[44] = system: UACC-257; assay type: functional, cell-based, Homo sapiens; settings: Homo sapiens, UACC-257
Description: SANGER: Inhibition of human UACC-257 cell growth in a cell viability assay.

[45] = system: MOLT-16; assay type: functional, cell-based, Homo sapiens; settings: Homo sapiens, MOLT-16;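 further: growth inhibition of human MOLT-16 cells, read out with a cell viability assay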
Description: SANGER: Inhibition of human MOLT-16 cell growth in a cell viability assay.

[46] = system: IST-MES1; assay type: functional, cell-based, Homo sapiens; settings: Homo sapiens, IST-MES1;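 further: growth inhibition of IST-MES1 cells, measured with a cell viability assay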
Description: SANGER: Inhibition of human IST-MES1 cell growth in a cell viability assay.

Measured: pIC50

CCN(CC)CCCCNc1ncc2cc(-c3cc(OC)cc(OC)c3)c(NC(=O)NC(C)(C)C)nc2n1 [PD-173074]
6.67: [4]
6.25: [39]
< 5.70: all other assays above

COc1cc2c(Nc3ccc(NC(=O)c4ccccc4)cc3)ncnc2cc1OCCCN1CCOCC1
5.78: [42]
5.42: [20]
6.21: [45]
5.92: [11]
5.46: [1]
5.43: [3]
6.00: [18]
5.49: [37]
5.56: [14] | [36]
5.71: [25]
< 5.40: all other assays above

CC1(C)CNc2cc(NC(=O)c3cccnc3NCc3ccncc3)ccc21 [MOTESANIB]
6.16: [15]
6.26: [13]
< 5.70: all other assays above
